# In the supplement of paper PMC5579334:
# Columns and labels:
# HS-PSS [1] = test: relative IC50 (inflection point of fitted dose-response curve, CellTiter-Glo viability, 72 h; top asymptote may be below 50% inhibition); higher = less potent
# Procedure, shortened: (§1)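 After seeding 750–1000 cells per well of MPNST cell lines or primary human Schwann cells into 384-well plates preprinted with each compound at five concentrations in 10-fold steps, plates were kept 72 h at 37 °C, 5% CO2. Viability was read as CellTiter-Glo ATP luminescence relative to vehicle and positive-control wells, with duplicates averaged where present. The data were fitted with four-parameter logistic models. Drug sensitivity score and relative IC50, censored at the top concentration, derive from the fits, and percent inhibition refers to the top concentration.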
# HS-Sch-2 = test: as above
# Procedure, shortened: as §1
# YST-1 = test: as above
# Procedure, shortened: as §1
# HS-PSS [2] = test: relative IC50 (inflection point of fitted dose-response curve, CellTox-Green cytotoxicity, 72 h; top asymptote may be below 50%); higher = less potent
# Procedure, shortened: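 For 72 h at 37 °C, MPNST cell lines and primary human Schwann cells were exposed in 384-well plates to five 10-fold compound dilutions. CellTox-Green, added before seeding at a final 1:1000 dilution, gave fluorescence from DNA released by disrupted cells. Signals were scaled to vehicle and positive-control wells, cultures failing plate quality control were left out, and four-parameter logistic fits were applied. Relative IC50 and drug sensitivity score were derived from the fits, with IC50 censored at the top concentration.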
SMILES,relative IC50 (HS-PSS [1]),relative IC50 (HS-Sch-2),relative IC50 (YST-1),relative IC50 (HS-PSS [2])
NC(=O)N1CCC(CC(=O)N2CCC([C@H]3c4ncc(Br)cc4CCc4cc(Cl)cc(Br)c43)CC2)CC1 [Lonafarnib],2150 nM,1660 nM,1370 nM,> 10000 nM
O=C(Nc1cccc(Nc2ncc(Br)c(NCCc3cnc[nH]3)n2)c1)N1CCCC1 [BX-912],1930 nM,2750 nM,867 nM,> 10000 nM
Cc1nc(Nc2n[nH]c3c2CN(C(=O)N[C@H](CN(C)C)c2ccccc2)C3(C)C)c2sccc2n1,22.5 nM,413 nM,67 nM,127 nM
CNC(=O)c1ccccc1Nc1nc(Nc2ccc3c(c2OC)CCC[C@H](N2CCN(CCO)CC2)C3)ncc1Cl,155 nM,979 nM,633 nM,1090 nM
CCCCNc1ncc(C(=O)NCc2ccc(-n3ccnc3)cc2)c(NC2CCC(O)CC2)n1 (centres undefined) [UNC2881],338 nM,> 2500 nM,345 nM,> 2500 nM
COc1cc(Nc2ncc(F)c(Nc3ccc4c(n3)N(COP(=O)(O)O)C(=O)C(C)(C)O4)n2)cc(OC)c1OC [Fostamatinib],514 nM,416 nM,685 nM,> 2500 nM
C[C@@H]1C[C@H]2O[C@@H]2/C=C\C=C\C(=O)Cc2c(Cl)c(O)cc(O)c2C(=O)O1 [Radicicol],545 nM,353 nM,810 nM,1140 nM
CCNC(=O)Nc1ccc(-c2nc3c(c(N4CCOC[C@@H]4C)n2)CCN(C2COC2)C3)cc1 [RG-7603],777 nM,356 nM,192 nM,> 2500 nM
CCn1c(=O)c(-c2ccc(Cl)cc2Cl)cc2cnc(Nc3ccc(N4CCNCC4)c(F)c3)nc21 [FRAX486],1750 nM,133 nM,> 5000 nM,> 5000 nM
CN(C)C(=O)c1cc2cnc(Nc3ccc(N4CCNCC4)cn3)nc2n1C1CCCC1 [Ribociclib],2030 nM,1610 nM,1530 nM,> 10000 nM
CN(CC(=O)N(Cc1ccc(C2CCCCC2)cc1)c1ccc(C(=O)O)cc1)S(=O)(=O)c1c(F)c(F)c(F)c(F)c1F [SH-4-54],7510 nM,5270 nM,3260 nM,7280 nM
Cc1ccc(C(=O)Nc2ccc(Oc3cc4cnn(C)c4cc3-c3cn[nH]c3)c(F)c2)c(=O)n1-c1ccc(F)cc1 [Merestinib],245 nM,371 nM,150 nM,> 1000 nM
Oc1ncc(N(CCCl)CCCl)c(O)n1 [Uramustine],> 10000 nM,> 10000 nM,> 10000 nM,> 10000 nM
COc1cc(N2CCC(N3CCN(C)CC3)CC2)ccc1Nc1ncnc(Nc2ccccc2S(=O)(=O)C(C)C)n1 [ASP3026],> 10000 nM,> 10000 nM,> 10000 nM,> 10000 nM
CC(C)c1cc(C(=O)N2Cc3ccc(CN4CCN(C)CC4)cc3C2)c(O)cc1O [Onalespib],114 nM,37 nM,105 nM,62.7 nM
CC(=O)N(O)CCCCCNC(=O)CCC(=O)N(O)CCCCCNC(=O)CCC(=O)N(O)CCCCCN [Deferoxamine],1480 nM,1070 nM,1970 nM,3240 nM
Cn1cc(C[C@@H](N)C(=O)O)c2ccccc21 [1-methyl-D-tryptophan],> 5000 nM,> 5000 nM,> 5000 nM,> 5000 nM
CCn1cc(-c2ccnc3[nH]c(-c4cccc(CN(C)C)c4)cc23)c(-c2ccc(NC(=O)N(C)C)cc2)n1,142 nM,157 nM,3.97 nM,> 1000 nM
NC[C@@](O)(c1ccc(Cl)cc1)c1ccc(-c2cn[nH]c2)cc1,2030 nM,1510 nM,2970 nM,2780 nM
CC(C)[C@H](C(=O)Nc1ccc(C(=O)NO)cc1)c1ccccc1 [AR-42],1060 nM,1150 nM,270 nM,1920 nM
COc1ncc(-c2ccc3nccc(-c4ccnnc4)c3c2)cc1NS(=O)(=O)c1ccc(F)cc1F [Omipalisib],35.2 nM,98.4 nM,6.88 nM,> 1000 nM
COc1ccc(C[C@H](NC(=O)[C@H](C)NC(=O)CN2CCOCC2)C(=O)N[C@@H](Cc2ccccc2)C(=O)[C@@]2(C)CO2)cc1 [ONX-0914],335 nM,158 nM,309 nM,307 nM
CNC(=O)c1ccc2cc([C@@]3(O)CCn4cncc43)ccc2c1 [Orteronel],> 10000 nM,> 10000 nM,> 10000 nM,> 10000 nM
COc1c(OCCCN2CCOCC2)ccc2c1N=C(NC(=O)c1cnc(N)nc1)N1CCN=C21 [Copanlisib],405 nM,113 nM,22.1 nM,> 1000 nM
COc1cc2c(Nc3ccc(Cl)c(Cl)c3F)ncnc2cc1OC[C@H]1C[C@@H]2CN(C)C[C@@H]2C1 [XL-647],406 nM,367 nM,101 nM,> 1000 nM
CCCOc1ccn2c(C(C)=O)cc(-c3ccccc3S(C)(=O)=O)c2c1 [GSK2801],> 10000 nM,> 10000 nM,> 10000 nM,> 10000 nM
